Assay results taken from the supplement of paper PMC11451515.

How the values were obtained:
Conditions in all cases: 48 h
[1] = tested on: SEM cells; test: cell viability relative to DMSO control; higher = less cytotoxic
Outline: (§1)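 NOMO1 or SEM cells were plated at 500 cells/well and P12-Ichikawa cells at 1000 cells/well in 1536-well plates (5 μl), after each leukemia line had been adapted for at least four passages in each medium. Pin dosing delivered library compounds in DMSO at 11 threefold concentrations, 47 μM to 0.79 nM. CellTiter-Glo One luminescence was read after 48 h at 37°C. Viability is reported as a per-plate percentage of DMSO wells, with cell-free wells as background.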

[2] = tested on: NOMO1; test: as above
Outline: as §1

[3] = tested on: P12-Ichikawa; test: as above
Outline: as §1

[4] = tested on: SEM cells; test: AUC of viability dose-response curve (% viability x log10 dose units); higher = less sensitive
Outline: (§2)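 Leukemia cells adapted to each medium (500 or 1000 cells/well, 1536-well plates) were exposed to library compounds in DMSO for 48 h at 37°C at 11 threefold doses, 47 μM to 0.79 nM. Luminescence by CellTiter-Glo One was normalised per plate to DMSO and cell-free wells, then fitted with a four-parameter log-logistic curve on log10 dose. Curves above full viability were scaled and quality-control failures removed before area under the curve was integrated by trapezoidal rule.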

[5] = tested on: NOMO1; test: as above
Outline: as §2

[6] = tested on: P12-Ichikawa; test: as above
Outline: as §2

CO[C@H]1C[C@@H]2CC[C@@H](C)[C@@](O)(O2)C(=O)C(=O)N2CCCC[C@H]2C(=O)O[C@H]([C@@H](C)C[C@@H]2CC[C@@H](O)[C@H](OC)C2)CC(=O)[C@H](C)/C=C(\C)[C@@H](O)[C@@H](OC)C(=O)[C@H](C)C[C@H](C)/C=C/C=C/C=C/1C
cell viability [%]
Conditions	[1]	[2]	[3]
HPLM + 10% dialyzed FBS, 0.000781 µM	95.4	106	118
HPLM + 10% dialyzed FBS, 0.00234 µM	95.3	110	127
HPLM + 10% dialyzed FBS, 0.00702 µM	88	112	122
HPLM + 10% dialyzed FBS, 0.0211 µM	83.2	91	125
HPLM + 10% dialyzed FBS, 0.0632 µM	86.9	95.3	124
HPLM + 10% dialyzed FBS, 0.19 µM	81.7	112	116
HPLM + 10% dialyzed FBS, 0.569 µM	81.9	103	121
HPLM + 10% dialyzed FBS, 1.71 µM	74.2	104	124
HPLM + 10% dialyzed FBS, 5.12 µM	80.1	81.6	113
HPLM + 10% dialyzed FBS, 15.4 µM	79.5	88.7	112
HPLM + 10% dialyzed FBS, 46.1 µM	61.3	81.5	91.8
RPMI 5 mM glucose + 10% FBS, 0.000781 µM	98.6	113	–
RPMI 5 mM glucose + 10% FBS, 0.00234 µM	84.3	116	–
RPMI 5 mM glucose + 10% FBS, 0.00702 µM	89.4	128	–
RPMI 5 mM glucose + 10% FBS, 0.0211 µM	94.9	136	–
RPMI 5 mM glucose + 10% FBS, 0.0632 µM	80.6	136	–
RPMI 5 mM glucose + 10% FBS, 0.19 µM	77.3	109	–
RPMI 5 mM glucose + 10% FBS, 0.569 µM	75.7	113	–
RPMI 5 mM glucose + 10% FBS, 1.71 µM	80.7	118	–
RPMI 5 mM glucose + 10% FBS, 5.12 µM	68	97.3	–
RPMI 5 mM glucose + 10% FBS, 15.4 µM	70.6	111	–
RPMI 5 mM glucose + 10% FBS, 46.1 µM	60.6	103	–
RPMI 5 mM glucose + 10% dialyzed FBS, 0.000781 µM	96.9	112	–
RPMI 5 mM glucose + 10% dialyzed FBS, 0.00234 µM	87.2	116	–
RPMI 5 mM glucose + 10% dialyzed FBS, 0.00702 µM	102	121	–
RPMI 5 mM glucose + 10% dialyzed FBS, 0.0211 µM	85.7	106	–
RPMI 5 mM glucose + 10% dialyzed FBS, 0.0632 µM	89.8	108	–
RPMI 5 mM glucose + 10% dialyzed FBS, 0.19 µM	81.3	117	–
RPMI 5 mM glucose + 10% dialyzed FBS, 0.569 µM	85.5	111	–
RPMI 5 mM glucose + 10% dialyzed FBS, 1.71 µM	84.4	115	–
RPMI 5 mM glucose + 10% dialyzed FBS, 5.12 µM	81.6	128	–
RPMI 5 mM glucose + 10% dialyzed FBS, 15.4 µM	81.7	105	–
RPMI 5 mM glucose + 10% dialyzed FBS, 46.1 µM	52.6	99.9	–

AUC of viability dose-response curve
Conditions	[4]	[5]	[6]
HPLM + 10% dialyzed FBS	394	454	465
RPMI 5 mM glucose + 10% FBS	382	442	415
RPMI 5 mM glucose + 10% dialyzed FBS	409	466	443

O=C(NOCC1CC1)c1ccc(F)c(F)c1Nc1ccc(I)cc1Cl
cell viability [%]
Conditions	[1]	[2]	[3]
HPLM + 10% dialyzed FBS, 0.000781 µM	91	97.2	92.8
HPLM + 10% dialyzed FBS, 0.00234 µM	87.8	109	98
HPLM + 10% dialyzed FBS, 0.00702 µM	109	123	104
HPLM + 10% dialyzed FBS, 0.0211 µM	113	115	110
HPLM + 10% dialyzed FBS, 0.0632 µM	99.7	99.1	114
HPLM + 10% dialyzed FBS, 0.19 µM	99.5	91.7	106
HPLM + 10% dialyzed FBS, 0.569 µM	113	74.7	101
HPLM + 10% dialyzed FBS, 1.71 µM	116	68.5	94.8
HPLM + 10% dialyzed FBS, 5.12 µM	95.8	52	84.3
HPLM + 10% dialyzed FBS, 15.4 µM	75.5	49.3	82.2
HPLM + 10% dialyzed FBS, 46.1 µM	77.1	41.4	79.3
RPMI 5 mM glucose + 10% FBS, 0.000781 µM	95.8	84.5	96.6
RPMI 5 mM glucose + 10% FBS, 0.00234 µM	93.7	91.6	102
RPMI 5 mM glucose + 10% FBS, 0.00702 µM	112	100	105
RPMI 5 mM glucose + 10% FBS, 0.0211 µM	108	112	103
RPMI 5 mM glucose + 10% FBS, 0.0632 µM	94.7	95.1	110
RPMI 5 mM glucose + 10% FBS, 0.19 µM	93.8	93.8	98
RPMI 5 mM glucose + 10% FBS, 0.569 µM	106	73.5	97.1
RPMI 5 mM glucose + 10% FBS, 1.71 µM	94.2	83.5	88.7
RPMI 5 mM glucose + 10% FBS, 5.12 µM	85.5	56.9	74
RPMI 5 mM glucose + 10% FBS, 15.4 µM	67.3	46.9	60.9
RPMI 5 mM glucose + 10% FBS, 46.1 µM	53.1	50	70
RPMI 5 mM glucose + 10% dialyzed FBS, 0.000781 µM	101	95.7	92.9
RPMI 5 mM glucose + 10% dialyzed FBS, 0.00234 µM	89.9	108	106
RPMI 5 mM glucose + 10% dialyzed FBS, 0.00702 µM	115	97.2	98
RPMI 5 mM glucose + 10% dialyzed FBS, 0.0211 µM	104	107	112
RPMI 5 mM glucose + 10% dialyzed FBS, 0.0632 µM	102	92.4	109
RPMI 5 mM glucose + 10% dialyzed FBS, 0.19 µM	78.2	86.8	114
RPMI 5 mM glucose + 10% dialyzed FBS, 0.569 µM	103	82.1	110
RPMI 5 mM glucose + 10% dialyzed FBS, 1.71 µM	89.6	75.6	112
RPMI 5 mM glucose + 10% dialyzed FBS, 5.12 µM	84.8	44.2	91.8
RPMI 5 mM glucose + 10% dialyzed FBS, 15.4 µM	59.7	42.8	71
RPMI 5 mM glucose + 10% dialyzed FBS, 46.1 µM	59.7	44.4	82.6

AUC of viability dose-response curve
Conditions	[4]	[5]	[6]
HPLM + 10% dialyzed FBS	455	362	447
RPMI 5 mM glucose + 10% FBS	440	389	429
RPMI 5 mM glucose + 10% dialyzed FBS	434	382	450

CCOC(=O)c1c(CSc2ccccc2)n(C)c2cc(Br)c(O)c(CN(C)C)c12
cell viability [%]
Conditions	[1]	[2]	[3]
HPLM + 10% dialyzed FBS, 0.000781 µM	89.7	129	121
HPLM + 10% dialyzed FBS, 0.00234 µM	94.8	121	119
HPLM + 10% dialyzed FBS, 0.00702 µM	96.4	114	128
HPLM + 10% dialyzed FBS, 0.0211 µM	109	133	126
HPLM + 10% dialyzed FBS, 0.0632 µM	96.2	127	123
HPLM + 10% dialyzed FBS, 0.19 µM	102	128	127
HPLM + 10% dialyzed FBS, 0.569 µM	97.3	130	118
HPLM + 10% dialyzed FBS, 1.71 µM	103	120	115
HPLM + 10% dialyzed FBS, 5.12 µM	82.5	128	124
HPLM + 10% dialyzed FBS, 15.4 µM	108	120	115
HPLM + 10% dialyzed FBS, 46.1 µM	88.6	104	109
RPMI 5 mM glucose + 10% FBS, 0.000781 µM	107	–	118
RPMI 5 mM glucose + 10% FBS, 0.00234 µM	114	–	127
RPMI 5 mM glucose + 10% FBS, 0.00702 µM	109	–	122
RPMI 5 mM glucose + 10% FBS, 0.0211 µM	103	–	126
RPMI 5 mM glucose + 10% FBS, 0.0632 µM	104	–	128
RPMI 5 mM glucose + 10% FBS, 0.19 µM	128	–	123
RPMI 5 mM glucose + 10% FBS, 0.569 µM	125	–	125
RPMI 5 mM glucose + 10% FBS, 1.71 µM	129	–	112
RPMI 5 mM glucose + 10% FBS, 5.12 µM	103	–	112
RPMI 5 mM glucose + 10% FBS, 15.4 µM	101	–	113
RPMI 5 mM glucose + 10% FBS, 46.1 µM	63.7	–	73.5
RPMI 5 mM glucose + 10% dialyzed FBS, 0.000781 µM	94.9	119	121
RPMI 5 mM glucose + 10% dialyzed FBS, 0.00234 µM	114	119	119
RPMI 5 mM glucose + 10% dialyzed FBS, 0.00702 µM	101	124	125
RPMI 5 mM glucose + 10% dialyzed FBS, 0.0211 µM	104	129	129
RPMI 5 mM glucose + 10% dialyzed FBS, 0.0632 µM	111	114	123
RPMI 5 mM glucose + 10% dialyzed FBS, 0.19 µM	97.5	124	118
RPMI 5 mM glucose + 10% dialyzed FBS, 0.569 µM	94.7	124	127
RPMI 5 mM glucose + 10% dialyzed FBS, 1.71 µM	109	129	118
RPMI 5 mM glucose + 10% dialyzed FBS, 5.12 µM	113	108	124
RPMI 5 mM glucose + 10% dialyzed FBS, 15.4 µM	109	92.8	113
RPMI 5 mM glucose + 10% dialyzed FBS, 46.1 µM	70.5	69.1	76.3

AUC of viability dose-response curve
Conditions	[4]	[5]	[6]
HPLM + 10% dialyzed FBS	463	471	464
RPMI 5 mM glucose + 10% FBS	459	461	461
RPMI 5 mM glucose + 10% dialyzed FBS	469	450	464
